Laboratory results published in patent US20090105238A1, “Compounds and Relative use for the Control of Phytopathogens” (ISAGRO RICERCA S.r.l, priority 2005, published 2009).

Key:
Plasmopara viticola = assay: Fungicidal (preventive) activity against Peronospora of vines, leaf spray; assay type: in vivo, Plasmopara viticola on vine (cultivar Dolcetto); conditions: for Activity 125 ppm / Activity 250 ppm: 7-day preventive activity; for Activity 125 ppm: scale 0 to 100 (healthy plant); for Activity 250 ppm: scale 0 (completely infected plant) to 100 (healthy plant); for Activity (dose ppm): 7-day preventive, scale 0-100
Protocol: Determination of the Fungicidal Activity Against Peronospora of Vines (Plasmopara viticola) […] After remaining 24 hours in a conditioned environment, the plants were sprayed on both sides of the leaves with an aqueous suspension of conidia of Plasmopara viticola (20,000 conidia per cm^3). The plants are kept in a humidity saturated environment at 21° C. for the incubation period of the fungus.

Erysiphe graminis = assay: Fungicidal (preventive) activity against oidium of wheat, leaf spray; assay type: in vivo, Erysiphe graminis on wheat (cultivar Gemini); conditions: 5-day preventive, scale 0-100
Protocol: Determination of the Fungicidal Activity Against Oidium of Wheat (Erysiphe graminis)
(§1) Leaves of wheat plants (cultivar Gemini), grown in vases in a conditioned environment (20±1° C., 70% relative humidity) are treated by spraying both sides of the leaves with compounds 1, 2 and 3, dispersed in a hydroacetone solution at 20% by volume in acetone. […]
(§2) The plants are kept in a humidity saturated environment at a temperature ranging from 18 to 24° C. for the incubation period of the fungus.
At the end of this period (12 days), the fungicidal activity is evaluated according to an evaluation percentage scale from 0 (completely infected plant) to 100 (healthy plant).

Puccinia recondita = assay: Fungicidal (preventive) activity against wheat rust, leaf spray; assay type: in vivo, Puccinia recondita on wheat (cultivar Gemini); conditions: 5-day preventive, scale 0-100
Protocol: Determination of the Fungicidal Activity Against Wheat Rust (Puccinia recondita)
as §1, §2
At the end of this period (14 days), the fungicidal activity is evaluated according to an evaluation percentage scale from 0 (completely infected plant) to 100 (healthy plant).

PR1 = assay: Gene response (PR1 expression, quantitative PCR) in treated seedlings; assay type: in vivo, arabidopsis thaliana; conditions: 800 ppm and 1600 ppm; leaves collected after 24 hours of treatment; compared with blank and glycine betaine (FIG. 1)
Protocol: Determination of the Gene Response of the Compounds Having General Formula (I) and their Mixtures with Other Fungicides
Four-week-old seedlings of arabidopsis thaliana were treated with the compounds having general formula (I) or their mixtures with other fungicides and the leaves were collected after 24 hours of treatment.
The total RNA was extracted from 0.05 g of fresh tissue using the “Genelute mammalian total RNA kit (Sigma)” according to the protocol indications. The cDNA were synthesized using “RevertAid™ M-MuLV Reverse Transcriptase” commercialized by Fermentas Life Sciences according to the following protocol: 2 μg of total RNA were mixed with 0.5 μg of oligo(dT) 18.
Deionized water (nuclease free) was then added to bring the reaction volume to 11 μl, the reaction was subsequently incubated at 70° C. for 5 minutes and then cooled in ice.
The following reagents were then added to the mixture:
4 μl of 5× reaction buffer, 10 mM of dNTP mix, 20 units of Ribonuclease inhibitor.
The reaction was incubated at 37° C. for 5 minutes, 200 units of RevertAid™ M-MuLV Reverse Transcriptase were subsequently added to the mixture and the reaction was incubated at 42° C. for 60 minutes. […]
A quantitative PCR analysis was effected on the cDNA using a mixture of primer/competimers of the ribosomal RNA 18S as internal standard in a ratio of 9:1. […]

Compound | Activity 125 ppm (Plasmopara viticola) | Activity 250 ppm (Plasmopara viticola) | further results
Cholanylamidopropylbetaine [Compound 11] | 90 | 94 | 
CCCCCCCCCCCC[N+](C)(C)CC(O)CS(=O)(=O)[O-] (centres unmarked) [Compound 5, Laurylhydroxysultaine] | 85 | 99 | 
cocamidopropyl[L]alaninebetaine [Compound 33] | 85 | 96 | 
COC(=O)CC(NC(=O)[C@@H](NC(=O)OC(C)C)C(C)C)c1ccc(Cl)cc1 (some centres unmarked) [IR5885, reference compound] |  |  | Activity (dose ppm) (Plasmopara viticola; 0.22 ppm): 15; Activity (dose ppm) (Plasmopara viticola; 0.45 ppm): 41; Activity (dose ppm) (Erysiphe graminis; 500 ppm): 20; Activity (dose ppm) (Puccinia recondita; 500 ppm): 15
C[N+](C)(C)CC(=O)[O-] [Glycine betaine, reference compound] |  |  | Activity (dose ppm) (Plasmopara viticola; 30 ppm): 30
CCCCCCCCCCCC(=O)NCCC[N+](C)(C)C(CC(=O)[O-])c1ccc(Cl)cc1 (stereo not drawn) [Compound 29, laurylamidopropyl-β-4-chlorophenylalaninebetaine] | 90 | 95 | 
CCCCCCCCCCCC(=O)NCCC[N+]1(C)CCCC1C(=O)[O-] (centres unmarked) [Compound 25, laurylamidopropyl[L]prolinebetaine] | 95 | 100 | 
CCCCCCCCCCCC(=O)NCCC[N+](C)(C)C(CC(=O)[O-])c1ccccc1 (stereo not drawn) [Compound 28, laurylamidopropyl- β-phenylalaninebetaine] | 90 | 99 | 
CCCCCCCCCCCC(=O)NCCC[N+](C)(C)C(C)C(=O)[O-] (centres unmarked) [Compound 26, laurylamidopropyl[L]alaninebetaine] | 90 | 95 | 
Cholesterylcarbonylamidopropylbetaine [Compound 10] | 90 | 95 | 
FC(F)C(F)(F)OCC(Cn1cncn1)c1ccc(Cl)cc1Cl (centres unmarked) [Tetraconazole, tetraconazole] |  |  | Activity (dose ppm) (Plasmopara viticola; 30 ppm): 20; Activity (dose ppm) (Erysiphe graminis; 1.8 ppm): 48; Activity (dose ppm) (Puccinia recondita; 30 ppm): 58
Cocamidopropyl- β-alaninebetaine [Compound 37] | 86 | 98 | 
Cocamidopropylhydroxysultaine [Compound 9] | 95 | 100 | 
CCCCCCCCCCCC(=O)NCCC[N+](C)(C)CC(=O)[O-] [Compound 7, Laurylamidopropylbetaine] | 95 | 100 | 
CCCCCCCCCCCC(=O)NCCC[N+](C)(C)C(C(=O)[O-])C(C)C (centres unmarked) [Compound 24, laurylamidopropyl[L]valinebetaine] | 88 | 99 | 
Cocamidopropylbetaine [Compound 8] | 98 | 100 | Activity (dose ppm) (Plasmopara viticola; 30 ppm): 30; Activity (dose ppm) (Erysiphe graminis; 500 ppm): 20 (500 ppm); Activity (dose ppm) (Puccinia recondita; 125 ppm): 29 (125 ppm); gene response (PR1): exceptional gene response
Cocamidopropyl[L]phenylglycinebetaine [Compound 34] | 88 | 97 | 
Cocamidopropyl- β-4-chlorophenylalaninebetaine [Compound 36] | 85 | 94 | 
Cocamidopropyl[L]prolinebetaine [Compound 32] | 88 | 95 | 
CCCCCCCCCCCC(=O)NCCC[N+](C)(C)CCC(=O)[O-] [Compound 30, laurylamidopropyl- β-alaninebetaine] | 85 | 90 | 
Cocamidopropyl[L]valinebetaine [Compound 31] | 85 | 98 | 
Cocamidopropyl-β-phenylalaninebetaine [Compound 35] | 89 | 95 | 
